These results are taken from publication PMC4133868 (BMB Reports, 2013).

Molecules are shown by their SMILES.

Assay [1] has as its target T1, t-bCblC (Bos taurus, UniProt Q5E9C8).
T1 sequence (Q5E9C8 1-244): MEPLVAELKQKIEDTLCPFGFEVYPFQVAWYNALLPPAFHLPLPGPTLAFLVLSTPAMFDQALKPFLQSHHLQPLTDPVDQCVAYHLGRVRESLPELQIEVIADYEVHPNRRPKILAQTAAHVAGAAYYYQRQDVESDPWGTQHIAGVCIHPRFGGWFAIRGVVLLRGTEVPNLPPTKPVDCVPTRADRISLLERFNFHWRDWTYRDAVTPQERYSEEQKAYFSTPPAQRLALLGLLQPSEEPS
As to the kind of experiment: Isothermal titration calorimetry. It counts as binding, bovine. For orientation: Isothermal titration calorimetry measures the heat released or taken up as one component is titrated into another.

Assay [2] addresses T2, f-bCblC (Bos taurus, UniProt Q5E9C8).
T2 sequence (Q5E9C8 1-280): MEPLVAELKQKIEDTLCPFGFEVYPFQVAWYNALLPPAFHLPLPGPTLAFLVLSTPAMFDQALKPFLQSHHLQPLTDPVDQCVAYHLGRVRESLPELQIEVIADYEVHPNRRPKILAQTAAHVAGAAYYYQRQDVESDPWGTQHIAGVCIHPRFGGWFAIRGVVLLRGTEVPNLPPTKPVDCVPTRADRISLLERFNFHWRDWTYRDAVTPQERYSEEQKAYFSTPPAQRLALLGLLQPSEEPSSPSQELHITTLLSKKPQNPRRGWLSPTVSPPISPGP

The target of assay [3] is T2, f-bCblC. As to conditions: read-out: Kd of GSH for f-bCblC (ITC); cited from earlier work.
The target in assay [4] is T1, t-bCblC. As to the kind of experiment: biochemical.
Assay [5] deals with T1, t-bCblC.
Assay [6] has as its target T2, f-bCblC. As to the kind of experiment: biochemical.
[7] abbreviates: hyperbolic fit of ΔTm vs GSH concentration.

With `N[C@@H](CCC(=O)N[C@@H](CS)C(=O)NCC(=O)O)C(=O)O` [GSH, glutathione], the Kd at t-bCblC [1] is 0.206 ± 0.035 mM; at f-bCblC [3], 0.355 ± 0.04 mM. On f-bCblC [2] (10 mM GSH, Tm without GSH 42.1 ± 0.4℃), the “melting temperature Tm of f-bCblC in the presence of GSH” value amounted to 44.2 ± 0.3 °C. At f-bCblC [2] (setting [7]), the “maximal ΔTm (ΔTm max) of f-bCblC” value came to 2.8 ± 0.3 °C. The AC50 at t-bCblC [4] turned out to be 2.8 ± 0.3 mM; on f-bCblC [6], 3.1 ± 0.3 mM. Also, the “melting temperature Tm of t-bCblC in the presence of GSH” value on t-bCblC [5] (10 mM GSH, Tm without GSH 41.5 ± 0.3℃) worked out at 45.2 ± 0.3 °C. The “maximal ΔTm (ΔTm max) of t-bCblC” value at t-bCblC [5] (setting [7]) came to 5.2 ± 0.2 °C.

The term Kd denotes the equilibrium constant for the complex coming apart. As usually defined, the AC50 is the concentration at which the activity in the assay is half-maximal. A higher AC50 goes with activity only at high concentration.
